According to patent US20240376074A1, “NAMPT INHIBITORS AND USES THEREOF” (Remedy Plan, Inc., priority 2021, published 2024):
Values belong to the compound of their own block, whether it stands above or below them.

Target: T1, NAMPT (Homo sapiens, UniProt P43490)
T1 construct: purchased Abcam ab221819
Test: NAMPT Activity Assay (Abcam #ab221819)
Assay type: biochemical
Conditions: purified NAMPT, percent inhibition from OD450 nm; compound concentration not given
Procedure: The NAMPT Activity Assay (Abcam #ab221819) was performed following manufacturers two-step reaction protocol. Briefly, compounds were added to a clear 96-well plate using the HP D300e Digital Dispenser. Purified NAMPT was added to all wells except the No NAMPT controls. Reaction Mix #1 was added to each well and the plate was incubated at 30*C for 1 hr followed by the addition of Reaction Mix #2. Absorbance was measured at OD450 nm using a multimode plate reader. Readings were recorded for 5 minutes and percent inhibition was calculated using: (1-(OD450 nm compound/OD450nm no drug))*100.

T1 sequence (P43490 whole entry): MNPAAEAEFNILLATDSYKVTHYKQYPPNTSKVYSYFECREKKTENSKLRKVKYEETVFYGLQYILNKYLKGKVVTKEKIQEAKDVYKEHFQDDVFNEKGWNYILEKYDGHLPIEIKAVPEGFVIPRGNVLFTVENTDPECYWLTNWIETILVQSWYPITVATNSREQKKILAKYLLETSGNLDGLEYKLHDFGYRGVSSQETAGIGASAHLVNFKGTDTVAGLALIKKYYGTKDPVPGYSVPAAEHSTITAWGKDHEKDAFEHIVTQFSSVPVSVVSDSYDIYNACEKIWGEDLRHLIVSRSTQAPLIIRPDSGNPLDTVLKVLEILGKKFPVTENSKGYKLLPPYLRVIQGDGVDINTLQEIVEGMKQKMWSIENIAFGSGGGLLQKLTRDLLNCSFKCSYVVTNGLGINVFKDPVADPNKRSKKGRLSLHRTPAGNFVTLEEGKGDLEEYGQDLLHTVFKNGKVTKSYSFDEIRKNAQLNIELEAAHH

SMILES: CC(=O)N(CC(F)F)c1ccc(-c2ccc(C(=O)NCCc3cn[nH]c3)cn2)cc1Cl [I-T2114, 6-[4-[Acetyl(2,2-difluoroethyl)amino]-3-chloro-phenyl]-N-[2-(1H-pyrazol-4-yl)ethyl]pyridine-3-carboxamide]
NAMPT Inhibition Code*: A (*A = <33% inhibition)

SMILES: CC(=O)N(CC(F)F)c1ccc(-c2ccc(NC(=O)/C=C/c3cccnc3)cn2)cc1Cl [I-T2293, (E)-N-[6-[4-[acetyl(2,2-difluoroethyl)amino]-3-chloro-phenyl]-3-pyridyl]-3-(3-pyridyl)prop-2-enamide]
NAMPT Inhibition Code*: C (C = ≥66% inhibition)

SMILES: CC(=O)N(CC1CC1)c1ccc(-c2ccc(C(=O)NCCc3cn[nH]c3)cn2)cc1Cl [I-T2111, 6-[4-[Acetyl(cyclopropylmethyl)amino]-3-chloro-phenyl]-N-[2-(1H-pyrazol-4-yl)ethyl]pyridine-3-carboxamide]
NAMPT Inhibition Code*: C (C = ≥66% inhibition)

SMILES: CC(=O)N(CC1CC1)c1ccc(-c2ccc(C(=O)N3Cc4ccccc4C3)cn2)cc1Cl [I-T2270, N-[2-Chloro-4-[5-(isoindoline-2-carbonyl)-2-pyridyl]phenyl]-N-(cyclopropylmethyl)acetamide]
NAMPT Inhibition Code*: B (B = >33 to <66% inhibition)

SMILES: CC(=O)N(CC1CC1)c1ccc(-c2ccc(C(=O)Nc3ccc4[nH]cnc4c3)cn2)cc1Cl [I-T2137, 6-[4-[Acetyl(cyclopropylmethyl)amino]-3-chloro-phenyl]-N-(1H-benzimidazol-5-yl)pyridine-3-carboxamide]
NAMPT Inhibition Code*: C (C = ≥66% inhibition)

SMILES: CC(=O)N(CC(F)F)c1ccc(-c2ccc(C(=O)NCCCc3cc[nH]n3)cn2)cc1Cl [I-T2287, 6-[4-[Acetyl(2,2-difluoroethyl)amino]-3-chloro-phenyl]-N-[3-(1H-pyrazol-3-yl)propyl]pyridine-3-carboxamide]
NAMPT Inhibition Code*: C (C = ≥66% inhibition)

SMILES: COC(=O)c1cc(-c2ccc(C(=O)NCCCc3cn[nH]c3)cn2)ccc1N(CC1CC1)C(C)=O [I-T2298, Methyl 2-[acetyl(cyclopropylmethyl)amino]-5-[5-[3-(1H-pyrazol-4-yl)propylcarbamoyl]-2-pyridyl]benzoate]
NAMPT Inhibition Code*: C (C = ≥66% inhibition)

SMILES: CC(=O)N(CC1CC1)c1ccc(-c2ccc(C(=O)Nc3cnc4nccn4c3)cn2)cc1Cl [I-T2140, 6-[4-[Acetyl(cyclopropylmethyl)amino]-3-chloro-phenyl]-N-imidazo[1,2-a]pyrimidin-6-yl-pyridine-3-carboxamide]
NAMPT Inhibition Code*: C (C = ≥66% inhibition)

SMILES: CC(=O)N(CC1CC1)c1ccc(-c2ccc(C(=O)NCc3c[nH]cn3)cn2)cc1Cl [I-T2151, 6-[4-[Acetyl(cyclopropylmethyl)amino]-3-chloro-phenyl]-N-(1H-imidazol-4-ylmethyl)pyridine-3-carboxamide]
NAMPT Inhibition Code*: A (*A = <33% inhibition)

SMILES: COC(=O)c1cc(-c2ccc(C(=O)NCCCn3ccnc3)cn2)ccc1N(CC1CC1)C(C)=O [I-T2300, Methyl 2-[acetyl(cyclopropylmethyl)amino]-5-[5-(3-imidazol-1-ylpropylcarbamoyl)-2-pyridyl]benzoate]
NAMPT Inhibition Code*: C (C = ≥66% inhibition)

SMILES: CC(=O)N(CC1CC1)c1ccc(-c2ccc(C(=O)NCCc3c[nH]cn3)cn2)cc1Cl [I-T2150, 6-[4-[Acetyl(cyclopropylmethyl)amino]-3-chloro-phenyl]-N-[2-(1H-imidazol-4-yl)ethyl]pyridine-3-carboxamide]
NAMPT Inhibition Code*: C (C = ≥66% inhibition)

SMILES: CC(=O)N(CC1CC1)c1ccc(-c2ccc(C(=O)NCc3cccnn3)cn2)cc1Cl [I-T2146, 6-[4-[Acetyl(cyclopropylmethyl)amino]-3-chloro-phenyl]-N-(pyridazin-3-ylmethyl)pyridine-3-carboxamide]
NAMPT Inhibition Code*: B (B = >33 to <66% inhibition)

SMILES: CC(=O)N(CC(F)F)c1ccc(-c2ccc(C(=O)NCCc3cccnc3)cn2)cc1Cl [I-T2205, 6-[4-[Acetyl(2,2-difluoroethyl)amino]-3-chloro-phenyl]-N-[2-(3-pyridyl)ethyl]pyridine-3-carboxamide]
NAMPT Inhibition Code*: C (C = ≥66% inhibition)

SMILES: CC(=O)N(CC(F)F)c1ccc(-c2ccc(C(=O)NCCCc3cn[nH]c3)cn2)cc1Cl [I-T2108, 6-[4-[Acetyl(2,2-difluoroethyl)amino]-3-chloro-phenyl]-N-[3-(1H-pyrazol-4-yl)propyl]pyridine-3-carboxamide]
NAMPT Inhibition Code*: C (C = ≥66% inhibition)

SMILES: CC(=O)N(CC1CC1)c1ccc(-c2ccc(C(=O)NCCc3cccnc3)cn2)cc1Cl [I-T2130, 6-[4-[Acetyl(cyclopropylmethyl)amino]-3-chloro-phenyl]-N-[2-(3-pyridyl)ethyl]pyridine-3-carboxamide]
NAMPT Inhibition Code*: C (C = ≥66% inhibition)

SMILES: CC(=O)N(CC1CC1)c1ccc(-c2ccc(C(=O)NCCCn3ccnc3)cn2)cc1Cl [I-T2128, 6-[4-[Acetyl(cyclopropylmethyl)amino]-3-chloro-phenyl]-N-(3-imidazol-1-ylpropyl)pyridine-3-carboxamide]
NAMPT Inhibition Code*: C (C = ≥66% inhibition)

Next, values leading:

NAMPT Inhibition Code*: C (C = ≥66% inhibition)
SMILES: CC(=O)N(CC1CC1)c1ccc(-c2ccc(NC(=O)Cc3ccc(Cl)nc3)cn2)cc1Cl [I-T2391, N-[6-[4-[acetyl(cyclopropylmethyl)amino]-3-chloro-phenyl]-3-pyridyl]-2-(6-chloro-3-pyridyl)acetamide]

NAMPT Inhibition Code*: C (C = ≥66% inhibition)
SMILES: CC(=O)N(CC1CC1)c1ccc(-c2ccc(C(=O)NCCCc3cn[nH]c3)cn2)cc1F [I-T2302, 6-[4-[acetyl(cyclopropylmethyl)amino]-3-fluoro-phenyl]-N-[3-(1H-pyrazol-4-yl)propyl]pyridine-3-carboxamide]

NAMPT Inhibition Code*: B (B = >33 to <66% inhibition)
SMILES: CC(=O)N(CC1CC1)c1ccc(-c2ccc(NC(=O)Cc3ccc(F)cc3)cn2)cc1Cl [I-T2390, N-[6-[4-[acetyl(cyclopropylmethyl)amino]-3-chloro-phenyl]-3-pyridyl]-2-(4-fluorophenyl)acetamide]

NAMPT Inhibition Code*: A (*A = <33% inhibition)
SMILES: CC(=O)N(CC1CC1)c1ccc(-c2ccc(C(=O)NCc3ncco3)cn2)cc1Cl [I-T2364, 6-[4-[acetyl(cyclopropylmethyl)amino]-3-chloro-phenyl]-N-(oxazol-2-ylmethyl)pyridine-3-carboxamide]

NAMPT Inhibition Code*: C (C = ≥66% inhibition)
SMILES: CC(=O)N(CC1CC1)c1ccc(-c2ccc(C(=O)NCCc3cccc(F)c3)cn2)cc1Cl [I-T2342, 6-[4-[acetyl(cyclopropylmethyl)amino]-3-chloro-phenyl]-N-[2-(3-fluorophenyl)ethyl]pyridine-3-carboxamide]

NAMPT Inhibition Code*: C (C = ≥66% inhibition)
SMILES: CC(=O)N(CC1CC1)c1ccc(-c2ccc(C(=O)NCc3ccc(Br)nc3)cn2)cc1Cl [I-T2370, 6-[4-[acetyl(cyclopropylmethyl)amino]-3-chloro-phenyl]-N-[(6-bromo-3-pyridyl)methyl]pyridine-3-carboxamide]

NAMPT Inhibition Code*: A (*A = <33% inhibition)
SMILES: CC(=O)N(CC1CC1)c1ccc(-c2ccc(C(=O)NCc3cncs3)cn2)cc1Cl [I-T2355, 6-[4-[acetyl(cyclopropylmethyl)amino]-3-chloro-phenyl]-N-(thiazol-5-ylmethyl)pyridine-3-carboxamide]

NAMPT Inhibition Code*: A (*A = <33% inhibition)
SMILES: CC(=O)N(CC1CC1)c1ccc(-c2ccc(C(=O)NCC3CCCN(C)C3)cn2)cc1Cl (centres unmarked) [I-T2338, 6-[4-[acetyl(cyclopropylmethyl)amino]-3-chloro-phenyl]-N-[(1-methyl-3-piperidyl)methyl]pyridine-3-carboxamide]

NAMPT Inhibition Code*: C (C = ≥66% inhibition)
SMILES: CC(=O)N(CC1CC1)c1ccc(-c2ccc(C(=O)NCc3ccc(C#N)nc3)cn2)cc1Cl [I-T2371, 6-[4-[acetyl(cyclopropylmethyl)amino]-3-chloro-phenyl]-N-[(6-cyano-3-pyridyl)methyl]pyridine-3-carboxamide]

NAMPT Inhibition Code*: A (*A = <33% inhibition)
SMILES: CC(=O)N(CC1CC1)c1ccc(-c2ccc(NC(=O)Cc3cccnc3Cl)cn2)cc1Cl [I-T2392, N-[6-[4-[acetyl(cyclopropylmethyl)amino]-3-chloro-phenyl]-3-pyridyl]-2-(2-chloro-3-pyridyl)acetamide]

NAMPT Inhibition Code*: B (B = >33 to <66% inhibition)
SMILES: CC(=O)N(CC1CC1)c1ccc(-c2ccc(NC(=O)CCc3ccc(F)nc3)cn2)cc1Cl [I-T2384, N-[6-[4-[acetyl(cyclopropylmethyl)amino]-3-chloro-phenyl]-3-pyridyl]-3-(6-fluoro-3-pyridyl)propanamide]

NAMPT Inhibition Code*: C (C = ≥66% inhibition)
SMILES: CC(=O)N(CC1CC1)c1ccc(-c2ccc(C(=O)N3Cc4ccc(F)cc4C3)cn2)cc1Cl [I-T2336, N-[2-chloro-4-[5-(5-fluoroisoindoline-2-carbonyl)-2-pyridyl]phenyl]-N-(cyclopropylmethyl) acetamide]

NAMPT Inhibition Code*: A (*A = <33% inhibition)
SMILES: CCOc1ccc(CNC(=O)c2ccc(-c3ccc(N(CC4CC4)C(C)=O)c(Cl)c3)nc2)cn1 [I-T2373, 6-[4-[acetyl(cyclopropylmethyl)amino]-3-chloro-phenyl]-N-[(6-ethoxy-3-pyridyl)methyl]pyridine-3-carboxamide]

NAMPT Inhibition Code*: A (*A = <33% inhibition)
SMILES: CC(=O)N(CC1CC1)c1ccc(-c2ccc(C(=O)NCc3nccs3)cn2)cc1Cl [I-T2356, 6-[4-[acetyl(cyclopropylmethyl)amino]-3-chloro-phenyl]-N-(thiazol-2-ylmethyl)pyridine-3-carboxamide]

NAMPT Inhibition Code*: C (C = ≥66% inhibition)
SMILES: CC(=O)N(CC1CC1)c1ccc(-c2ccc(C(=O)NCCc3ccncc3)cn2)cc1Cl [I-T2308, 6-[4-[Acetyl(cyclopropylmethyl)amino]-3-chloro-phenyl]-N-[2-(4-pyridyl)ethyl]pyridine-3-carboxamide]

NAMPT Inhibition Code*: C (C = ≥66% inhibition)
SMILES: CC(=O)N(CC1CC1)c1ccc(-c2ccc(C(=O)NCCC3CCCCC3)cn2)cc1Cl [I-T2348, 6-[4-[acetyl(cyclopropylmethyl)amino]-3-chloro-phenyl]-N-(2-cyclohexylethyl)pyridine-3-carboxamide]
